Data published in ChEMBL document CHEMBL4673189, “Recent progress in the discovery of ghrelin O-acyltransferase (GOAT) inhibitors” (RSC Med Chem, 2020).
Values belong to the molecule of their own block, whether it stands above or below them. Non-standard residues stand in square brackets, D forms with d. Residues, ends and D or L forms follow the SMILES beside them. *: point of attachment. Octanoyl = CCCCCCCC(=O)*; X1 = CC(C)C[C@@H](CN)N*; Dap = NC[C@H](N)C(=O)O

How the values were obtained:
[1] = In vivo inhibition of GOAT in C57BL/6 mouse assessed as reduction in ratio of AG to total-ghrelin at 18 mg/kg, po BID administered via gavage for 3 days by ELISA relative to control; assay type: functional; conditions: C57BL/6, po, 72 h, time 3 day
[2] = molecular target: T1, Membrane-bound ghrelin O-acyltransferase MBOAT4 (Homo sapiens, UniProt Q96T53); experiment: Inhibition of human His-tagged GOAT expressed in baculovirus infected Sf9 cell membrane using desacyl-ghrelin-biotin and octanoyl-CoA as substrate incubated for 1 hr by ELISA; assay type: cell membranes
T1 sequence (Q96T53 whole entry): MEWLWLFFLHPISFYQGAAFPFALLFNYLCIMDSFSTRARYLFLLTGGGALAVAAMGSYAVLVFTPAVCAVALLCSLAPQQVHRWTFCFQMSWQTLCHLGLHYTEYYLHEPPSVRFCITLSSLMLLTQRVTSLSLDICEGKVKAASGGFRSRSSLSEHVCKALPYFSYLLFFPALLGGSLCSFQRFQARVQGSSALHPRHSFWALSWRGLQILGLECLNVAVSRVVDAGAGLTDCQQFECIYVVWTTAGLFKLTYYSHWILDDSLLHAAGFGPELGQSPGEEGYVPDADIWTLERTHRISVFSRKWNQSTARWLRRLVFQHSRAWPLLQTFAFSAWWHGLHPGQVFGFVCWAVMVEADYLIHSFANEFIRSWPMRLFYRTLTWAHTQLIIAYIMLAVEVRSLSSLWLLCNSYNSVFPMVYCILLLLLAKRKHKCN

[3] = molecular target: T2, Membrane-bound ghrelin O-acyltransferase MBOAT4 (Mus musculus, UniProt P0C7A3); experiment: Inhibition of N-terminal His10-tagged mouse GOAT expressed in baculovirus infected sf9 insect cell membrane using proghrelin-His8 and [3H]octanoyl CoA as substrate by scintillation counting method; assay type: cell membranes
T2 sequence (P0C7A3 whole entry): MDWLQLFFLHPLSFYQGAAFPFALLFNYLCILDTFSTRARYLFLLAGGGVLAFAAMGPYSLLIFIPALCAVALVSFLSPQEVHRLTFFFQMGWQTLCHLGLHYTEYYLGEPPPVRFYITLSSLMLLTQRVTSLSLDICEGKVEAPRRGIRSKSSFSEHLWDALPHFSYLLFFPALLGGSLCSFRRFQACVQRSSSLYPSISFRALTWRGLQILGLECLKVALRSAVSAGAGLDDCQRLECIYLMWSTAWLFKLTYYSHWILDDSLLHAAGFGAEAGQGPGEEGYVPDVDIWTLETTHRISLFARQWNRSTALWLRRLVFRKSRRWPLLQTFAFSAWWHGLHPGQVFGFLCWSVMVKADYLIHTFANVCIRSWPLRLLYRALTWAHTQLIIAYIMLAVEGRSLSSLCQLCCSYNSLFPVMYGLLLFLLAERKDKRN

[4] = In vivo inhibition of GOAT in C57BL/6 mouse assessed as increase in unacylated-ghrelin level at 1 mg/kg, po BID administered via gavage for 3 days by ELISA relative to control; assay type: functional; conditions: time 3 day
[5] = In vivo inhibition of GOAT in C57BL/6 mouse assessed as reduction in ratio of AG to total-ghrelin at 1 mg/kg, po BID administered via gavage for 3 days by ELISA relative to control; assay type: functional; conditions: C57BL/6, po, 72 h, time 3 day
[6] = In vivo inhibition of GOAT in C57BL/6 mouse assessed as decrease in plasma acylated ghrelin level at 10 mg/kg, po BID administered via gavage for 3 days by ELISA relative to control; assay type: functional; conditions: C57BL/6, po, 72 h, time 3 day
[7] = In vivo inhibition of GOAT in C57BL/6 mouse assessed as increase in unacylated-ghrelin level at 3 mg/kg, po BID administered via gavage for 3 days by ELISA relative to control; assay type: functional; conditions: time 3 day
[8] = In vivo inhibition of GOAT in C57BL/6 mouse assessed as decrease in plasma acylated ghrelin level at 0.3 mg/kg, po BID administered via gavage for 3 days by ELISA relative to control; assay type: functional; conditions: C57BL/6, po, 72 h, time 3 day
[9] = In vivo inhibition of GOAT in C57BL/6 mouse assessed as reduction in ratio of AG to total-ghrelin at 3 mg/kg, po BID administered via gavage for 3 days by ELISA relative to control; assay type: functional; conditions: C57BL/6, po, 72 h, time 3 day
[10] = In vivo inhibition of GOAT in C57BL/6 mouse assessed as increase in unacylated-ghrelin level at 10 mg/kg, po BID administered via gavage for 3 days by ELISA relative to control; assay type: functional; conditions: time 3 day
[11] = In vivo inhibition of GOAT in C57BL/6 mouse assessed as reduction in ratio of AG to total-ghrelin at 0.3 mg/kg, po BID administered via gavage for 3 days by ELISA relative to control; assay type: functional; conditions: C57BL/6, po, 72 h, time 3 day
[12] = In vivo inhibition of GOAT in C57BL/6 mouse assessed as increase in unacylated-ghrelin level at 0.3 mg/kg, po BID administered via gavage for 3 days by ELISA relative to control; assay type: functional; conditions: time 3 day
[13] = In vivo inhibition of GOAT in C57BL/6 mouse assessed as reduction in ratio of AG to total-ghrelin at 10 mg/kg, po BID administered via gavage for 3 days by ELISA relative to control; assay type: functional; conditions: C57BL/6, po, 72 h, time 3 day
[14] = In vivo inhibition of GOAT in C57BL/6 mouse assessed as decrease in plasma acylated ghrelin level at 3 mg/kg, po BID administered via gavage for 3 days by ELISA relative to control; assay type: functional; conditions: C57BL/6, po, 72 h, time 3 day
[15] = In vivo inhibition of GOAT in C57BL/6 mouse assessed as decrease in plasma acylated ghrelin level at 1 mg/kg, po BID administered via gavage for 3 days by ELISA relative to control; assay type: functional; conditions: C57BL/6, po, 72 h, time 3 day
[16] = molecular target: T2, Membrane-bound ghrelin O-acyltransferase MBOAT4; experiment: Antagonist activity at mouse GOAT expressed in baculovirus infected sf9 insect cell membrane using ghrelin(1 to 5) pentapeptide as substrate preincubated for 5 mins followed by Palmitoyl-CoA and n-octynoyl-CoA addition and measured after 5 mins by amplex red/H2O2 reagent-based fluorescence method; assay type: cell membranes
[17] = In vivo inhibition of GOAT in C57BL/6 mouse assessed as reduction in ratio of AG to total-ghrelin at 0.1 mg/kg, po BID administered via gavage for 3 days by ELISA relative to control; assay type: functional; conditions: C57BL/6, po, 72 h, time 3 day
[18] = In vivo inhibition of GOAT in mouse model of HFHC-diet induced obesity assessed as reduction in acyl ghrelin level at 10 mg/kg, po administered once daily for 7 days relative to control; assay type: functional; conditions: 168 h, time 7 day
[19] = In vivo inhibition of GOAT in cynomolgus monkey assessed as reduction in plasma acyl ghrelin AUC (0 to 24 hrs) at 10 mg/kg, po administered as single dose measured after 15 mins to 24 hrs relative to control; assay type: functional; conditions: Macaca fascicularis, 0.25 h
[20] = molecular target: T1, Membrane-bound ghrelin O-acyltransferase MBOAT4; experiment: Inhibition of human His-tagged GOAT expressed in baculovirus infected Sf9 cell membrane using biotinylated ghrelin peptide/octanoyl-CoA/palmitoyl CoA as substrate incubated for 80 mins by TR-FRET assay; assay type: cell membranes
[21] = molecular target: T1, Membrane-bound ghrelin O-acyltransferase MBOAT4; experiment: Inhibition of human GOAT expressed in baculovirus infected sf9 insect cell membrane using GSSFLC-acrylodan and octanoyl-CoA as substrate preincubated for 30 mins followed by substrate addition and measured after 3 hrs by HPLC analysis; assay type: cell membranes
[22] = molecular target: T2, Membrane-bound ghrelin O-acyltransferase MBOAT4; experiment: Inhibition of mouse GOAT expressed in baculovirus infected sf9 insect cell microsomes using biotinylated des-acyl ghrelin and octanoyl-CoA -CoA as substrate incubated for 15 mins by HTRF assay; design: species or system Microsome
[23] = molecular target: T1, Membrane-bound ghrelin O-acyltransferase MBOAT4; experiment: Inhibition of human GOAT expressed in baculovirus infected sf9 insect cell microsomes using biotinylated des-acyl ghrelin and octanoyl-CoA as substrate incubated for 15 mins by HTRF assay; design: species or system Microsome
[24] = molecular target: T1, Membrane-bound ghrelin O-acyltransferase MBOAT4; experiment: Inhibition of GOAT (unknown origin)
[25] = molecular target: Growth hormone secretagogue receptor type 1 (Homo sapiens, UniProt Q92847); experiment: Inhibition of GHSR-1A (unknown origin)
Chain of Growth hormone secretagogue receptor type 1 (Q92847 whole entry): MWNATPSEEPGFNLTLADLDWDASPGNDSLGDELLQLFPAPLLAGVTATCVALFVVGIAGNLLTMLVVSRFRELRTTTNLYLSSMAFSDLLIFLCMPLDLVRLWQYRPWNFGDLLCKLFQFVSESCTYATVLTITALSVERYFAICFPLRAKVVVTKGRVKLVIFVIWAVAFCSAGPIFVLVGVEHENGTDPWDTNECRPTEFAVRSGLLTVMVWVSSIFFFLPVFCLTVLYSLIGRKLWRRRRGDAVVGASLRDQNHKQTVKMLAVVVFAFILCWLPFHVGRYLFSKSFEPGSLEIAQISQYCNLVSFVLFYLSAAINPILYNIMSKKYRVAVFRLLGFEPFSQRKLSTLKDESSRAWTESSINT

- IC50 [3]: 7 µM
Compound: CCCCCCCC(=O)OC[C@H](OC(=O)[C@H](CO)NC(=O)CN)C(=O)N[C@@H](Cc1ccccc1)C(=O)N[C@@H](CC(C)C)C(=O)N[C@@H](CO)C(=O)N1CCC[C@H]1C(=O)N[C@@H](CCC(=O)O)C(=O)N[C@@H](Cc1cnc[nH]1)C(=O)N[C@@H](CCC(N)=O)C(=O)N[C@@H](CCCCN)C(=O)N[C@@H](C)C(=O)N[C@@H](CCC(N)=O)C(=O)N[C@@H](CCC(N)=O)C(=O)N[C@@H](CCCNC(=N)N)C(=O)N[C@@H](CCCCN)C(=O)N[C@@H](CCC(=O)O)C(=O)N[C@@H](CO)C(=O)N[C@@H](CCCCN)C(=O)N[C@@H](CCCCN)C(=O)N1CCC[C@H]1C(=O)N1CCC[C@H]1C(=O)N[C@@H](C)C(=O)N[C@@H](CCCCN)C(=O)N[C@@H](CC(C)C)C(=O)N[C@@H](CCC(N)=O)C(=O)N1CCC[C@H]1C(=O)N[C@@H](CCCNC(=N)N)C(=O)O

- IC50 [16]: 7.5 µM
Compound: CCCCCCN(C(C)=O)C(CNCc1ccccc1)c1ccc2cc(O)ccc2c1 (centres undefined)

- IC50 [3]: 50 µM
Compound: CCCCCCC[C@](C)(O)/C=C/[C@H](NC(=O)OCc1ccccc1)C(=O)OC

- IC50 [3]: 90 µM
Compound: CCCCCCC[C@H](O)/C=C/[C@H](NC(=O)OCc1ccccc1)C(=O)OC

- IC50 [3]: 1 µM
Compound: CCCCCCCC(=O)NC[C@H](NC(=O)[C@H](CO)NC(=O)CN)C(=O)N[C@@H](Cc1ccccc1)C(=O)N[C@H](CN)CC(C)C (H-GS[Dap](Octanoyl)F-X1)

- IC50 [24]: 6 nM
- IC50 [25]: 100 µM
Compound: C[C@@H](O)[C@H](NC(=O)[C@@H]1CCCN1C(=O)[C@H](CO)NC(=O)[C@H](Cc1cccc2ccccc12)NC(=O)[C@H](CN)NC(=O)[C@H](CO)NC(=O)CN)C(N)=O (HELM PEPTIDE1{G.S.[NC[C@H](N[*:1])C(=O)[*:2]].[O=C([C@H](Cc1cccc2ccccc12)N[*:1])[*:2]].S.P.T.[am]}$$$$V2.0)

The remaining lines, values behind:

Compound: C[C@H](NC(=O)c1ccn(C)n1)C(=O)N1CCC(CCc2c(N)nc(N)nc2Cl)CC1
- inhibition in vivo at 18 mg/kg [1]: 86%
- IC50 [2]: 68.9 nM

Compound: CCCC[C@H]1C[C@H](C(=O)NC[C@H]2CCCN2C(=O)[C@@H](NC(=S)CNC)C(C)(C)C)C1
- IC50 [3]: 0.03 µM

Compound: C[C@H](NC(=O)C1CC1)C(=O)N1CCC(CCc2c(N)nc(N)nc2Cl)CC1
- fold change (FC) [4]: 2.82
- inhibition in vivo at 1 mg/kg [5]: 54%
- inhibition in vivo at 10 mg/kg [6]: 48%
- fold change (FC) [7]: 2.53
- inhibition in vivo at 0.3 mg/kg [8]: -1%
- IC50 [2]: 192 nM
- inhibition in vivo at 3 mg/kg [9]: 71%
- fold change (FC) [10]: 2.9
- inhibition in vivo at 0.3 mg/kg [11]: 39%
- fold change (FC) [12]: 2.24
- inhibition in vivo at 10 mg/kg [13]: 77%
- inhibition in vivo at 3 mg/kg [14]: 45%
- inhibition in vivo at 1 mg/kg [15]: 5%

Compound: COC(=O)N[C@@H](C)C(=O)N1CCC(CCc2c(N)nc(C)nc2Cl)CC1
- fold change (FC) [7]: 2.9
- inhibition in vivo at 3 mg/kg [9]: 82%
- inhibition in vivo at 3 mg/kg [14]: 66%

Compound: Cc1nc(C(F)(F)F)nc(N)c1CCC1CCN(C(=O)[C@H](C)NC(=O)c2ccnn2C)CC1
- inhibition in vivo at 1 mg/kg [5]: 79%
- inhibition in vivo at 3 mg/kg [9]: 82%
- inhibition in vivo at 0.3 mg/kg [11]: 62%
- inhibition in vivo at 0.1 mg/kg [17]: 57%
- inhibition in vivo at 10 mg/kg [13]: 82%

Compound: CCCCCCCCN(C(C)=O)C(CNCc1ccccc1)c1ccc2cc(O)ccc2c1 (centres undefined)
- IC50 [16]: 13 µM

Compound: O=C(O)Cc1csc2cc(O[C@H]3CCc4ncccc43)cc(Cl)c12
- inhibition in vivo at 10 mg/kg [18]: 28%
- inhibition in vivo at 10 mg/kg [19]: 51%
- IC50 [20]: < 50 nM

Compound: CC1(C)C(=O)C(C#N)=C[C@]2(C)[C@H]3CC[C@]4(C)CCC[C@H]4[C@@H]3CC[C@@H]12
- IC50 [21]: 8 µM

Compound: O=C(O)c1ccc2oc(SCc3ccc(Cl)cc3Cl)nc2c1
- IC50 [22]: 3.3 nM
- IC50 [23]: 8.6 nM

Compound: CCCCCCCC(=O)OC[C@H](NC(=O)[C@H](CO)NC(=O)CN)C(=O)N[C@@H](Cc1ccccc1)C(=O)N[C@H](CN)CC(C)C (H-GSS(Octanoyl)F-X1)
- IC50 [3]: 45 µM
